What was measured:
Echinochloa spp. = test: Paddy field treatment (Test Example 3); type: in vivo, Echinochloa crusgalli; details: paddy pot, submerged 4 cm, dropped on water surface 10th day after transplantation, 1 kg active ingredient per hectare, evaluated 21st day
Description: (§1) In the above evaluation criteria, the term “herbicidal effect” means evaluation to the objective weeds, and a higher index of the evaluation criteria means higher herbicidal effect on the objective weeds. On the other hand, a lower index of the evaluation criteria for the crops means higher safety to the crops. A plastic pot of 130 cm^2 was filled with paddy soil, and soil puddling was carried out to adjust the submerged depth to 4 cm. Then, seeds of Echinochloa crusgalli, Monochoria vaginalis, Ammannia multiflora and Scirpus juncoides were sowed, and rice (Oryza […], variety: Koshihikari) of two-leaf period was transplanted by 2 rice plants of 1 stub per pot at a depth of 3 cm. On the 10th day after the transplantation, a wettable powder composition was prepared in accordance with Formulation Example 1, diluted with water in such an amount that the amount of the active ingredient became 1 kg per hectare, and then dropped to diffuse on the water surface. On the 21st day after the dropping, observation and evaluation were carried out according to the aforesaid criteria.

Stellaria media [1] = test: Upland field foliage treatment (Test Example 1); type: in vivo; details: foliage treatment 14th day after sowing, wettable powder, 1 kg active ingredient per hectare, evaluated 21st day after application
Excerpt: (§2) In the above evaluation criteria, the term “herbicidal effect” means evaluation to the objective weeds, and a higher index of the evaluation criteria means higher herbicidal effect on the objective weeds. On the other hand, a lower index of the evaluation criteria for the crops means higher safety to the crops. A plastic pot of 130 cm^2 was filled with upland soil. Then, seeds of weeds, namely, Setaria viridis, Digitaria adscendens, Chenopodium album and Stellaria media, and seeds of crops, namely, soybean (Glycine max) and wheat (Triticum aestivum), were sowed and covered with soil of about 1 cm thick. On the 14th day after the sowing, a wettable powder composition was prepared in accordance with Formulation Example 1, diluted with water in such an amount that the amount of the active ingredient became 1 kg per hectare, and then uniformly applied to the plant leaf surfaces. On the 21st day after the application, observation and evaluation were carried out according to the aforesaid criteria.

Chenopodium album [2] = test: Upland field foliage treatment (Test Example 1); type: in vivo; details: foliage treatment 14th day after sowing, wettable powder, 1 kg active ingredient per hectare, evaluated 21st day after application
Excerpt: as §2

Setaria viridis [3] = test: Upland field foliage treatment (Test Example 1); type: in vivo; details: foliage treatment 14th day after sowing, wettable powder, 1 kg active ingredient per hectare, evaluated 21st day after application
Excerpt: as §2

Digitaria adscendens [4] = test: Upland field foliage treatment (Test Example 1); type: in vivo; details: foliage treatment 14th day after sowing, wettable powder, 1 kg active ingredient per hectare, evaluated 21st day after application
Excerpt: as §2

soybean (Glycine max) [5] = test: Upland field foliage treatment (Test Example 1), crop; type: in vivo; details: foliage treatment 14th day after sowing, 1 kg active ingredient per hectare, evaluated 21st day, lower index = higher safety
Excerpt: as §2

[6] = system: wheat (Triticum aestivum); test: as above; type: in vivo; details: foliage treatment 14th day after sowing, 1 kg active ingredient per hectare, evaluated 21st day, lower index = higher safety
Excerpt: as §2

Stellaria media [7] = test: Upland soil treatment (Test Example 2); type: in vivo; details: soil surface treatment next day after sowing, wettable powder, 1 kg active ingredient per hectare, evaluated 21st day after application
Excerpt: (§3) In the above evaluation criteria, the term “herbicidal effect” means evaluation to the objective weeds, and a higher index of the evaluation criteria means higher herbicidal effect on the objective weeds. On the other hand, a lower index of the evaluation criteria for the crops means higher safety to the crops. A plastic pot of 130 cm^2 was filled with upland soil. Then, seeds of weeds, namely, Setaria viridis, Digitaria adscendens, Chenopodium album and Stellaria media, and seeds of crops, namely, soybean (Glycine max) and wheat (Triticum aestivum), were sowed and covered with soil of about 1 cm thick. On the next day after the sowing, a wettable powder composition was prepared in accordance with Formulation Example 1, diluted with water in such an amount that the amount of the active ingredient became 1 kg per hectare, and then uniformly applied to the soil surface. On the 21st day after the application, observation and evaluation were carried out according to the aforesaid criteria.

Chenopodium album [8] = test: Upland soil treatment (Test Example 2); type: in vivo; details: soil surface treatment next day after sowing, wettable powder, 1 kg active ingredient per hectare, evaluated 21st day after application
Excerpt: as §3

Setaria viridis [9] = test: Upland soil treatment (Test Example 2); type: in vivo; details: soil surface treatment next day after sowing, wettable powder, 1 kg active ingredient per hectare, evaluated 21st day after application
Excerpt: as §3

Digitaria adscendens [10] = test: Upland soil treatment (Test Example 2); type: in vivo; details: soil surface treatment next day after sowing, wettable powder, 1 kg active ingredient per hectare, evaluated 21st day after application
Excerpt: as §3

Scirpus juncoides = test: Paddy field treatment (Test Example 3); type: in vivo; details: paddy pot, submerged 4 cm, dropped on water surface 10th day after transplantation, 1 kg active ingredient per hectare, evaluated 21st day
Description: as §1

Monochoria vaginalis = test: Paddy field treatment (Test Example 3); type: in vivo; details: paddy pot, submerged 4 cm, dropped on water surface 10th day after transplantation, 1 kg active ingredient per hectare, evaluated 21st day
Description: as §1

Ammannia multiflora = test: Paddy field treatment (Test Example 3); type: in vivo; details: paddy pot, submerged 4 cm, dropped on water surface 10th day after transplantation, 1 kg active ingredient per hectare, evaluated 21st day
Description: as §1

soybean (Glycine max) [11] = test: Upland soil treatment (Test Example 2), crop; type: in vivo; details: soil surface treatment next day after sowing, 1 kg active ingredient per hectare, evaluated 21st day, lower index = higher safety
Excerpt: as §3

[12] = system: wheat (Triticum aestivum); test: Upland soil treatment (Test Example 2), crop; type: in vivo; details: soil surface treatment next day after sowing, 1 kg active ingredient per hectare, evaluated 21st day, lower index = higher safety
Excerpt: as §3

[13] = system: rice (Oryza sative, variety: Koshihikari); test: Paddy field treatment (Test Example 3), crop; type: in vivo, Oryza sativa; details: transplanted rice two-leaf period, water surface treatment 10th day after transplantation, 1 kg active ingredient per hectare, evaluated 21st day, lower index = higher safety
Description: as §1

SMILES	Herbicidal activity Echinochloa spp. (Echinochloa spp.)	Herbicidal activity Stellaria media (Stellaria media [1])	Herbicidal activity Chenopodium album (Chenopodium album [2])	Herbicidal activity Setaria viridis (Setaria viridis [3])	Herbicidal activity Digitaria adscendens (Digitaria adscendens [4])	Herbicidal activity Glycine max (soybean (Glycine max) [5])	Herbicidal activity Triticum aestivum [6]	Herbicidal activity Stellaria media (Stellaria media [7])	Herbicidal activity Chenopodium album (Chenopodium album [8])	Herbicidal activity Setaria viridis (Setaria viridis [9])	Herbicidal activity Digitaria adscendens (Digitaria adscendens [10])	Herbicidal activity Scirpus juncoides (Scirpus juncoides)	Herbicidal activity Monochoria vaginalis (Monochoria vaginalis)	Herbicidal activity Ammannia multiflora (Ammannia multiflora)	Herbicidal activity Glycine max (soybean (Glycine max) [11])	Herbicidal activity Triticum aestivum [12]	Herbicidal activity Oryza sativa [13]
COC=C(Cn1nc(-c2ccc(Cl)cc2Cl)c(Br)c1C)C(=O)OC [Compound 30]	4 (herbicidal effect of not less than 70% by weight and less than 90% by weight)	5 (herbicidal effect of not less than 90% by weight)	5 (herbicidal effect of not less than 90% by weight)	4 (herbicidal effect of not less than 70% by weight and less than 90% by weight)	5 (herbicidal effect of not less than 90% by weight)	1 (herbicidal effect of not less than 10% by weight and less than 30% by weight)	0 (herbicidal effect of not less than 0% by weight and less than 10% by weight)	4 (herbicidal effect of not less than 70% by weight and less than 90% by weight)	4 (herbicidal effect of not less than 70% by weight and less than 90% by weight)	5 (herbicidal effect of not less than 90% by weight)	5 (herbicidal effect of not less than 90% by weight)	4 (herbicidal effect of not less than 70% by weight and less than 90% by weight)	5 (herbicidal effect of not less than 90% by weight)	5 (herbicidal effect of not less than 90% by weight)	0 (herbicidal effect of not less than 0% by weight and less than 10% by weight)	0 (herbicidal effect of not less than 0% by weight and less than 10% by weight)	0 (herbicidal effect of not less than 0% by weight and less than 10% by weight)
COC=C(Cn1nc(-c2cc(C)ccc2C)c(Cl)c1C)C(=O)OC [Compound 19]	5 (herbicidal effect of not less than 90% by weight)	4 (herbicidal effect of not less than 70% by weight and less than 90% by weight)	5 (herbicidal effect of not less than 90% by weight)	4 (herbicidal effect of not less than 70% by weight and less than 90% by weight)	5 (herbicidal effect of not less than 90% by weight)	0 (herbicidal effect of not less than 0% by weight and less than 10% by weight)	0 (herbicidal effect of not less than 0% by weight and less than 10% by weight)	5 (herbicidal effect of not less than 90% by weight)	4 (herbicidal effect of not less than 70% by weight and less than 90% by weight)	4 (herbicidal effect of not less than 70% by weight and less than 90% by weight)	5 (herbicidal effect of not less than 90% by weight)	5 (herbicidal effect of not less than 90% by weight)	5 (herbicidal effect of not less than 90% by weight)	5 (herbicidal effect of not less than 90% by weight)	0 (herbicidal effect of not less than 0% by weight and less than 10% by weight)	0 (herbicidal effect of not less than 0% by weight and less than 10% by weight)	1 (herbicidal effect of not less than 10% by weight and less than 30% by weight)
COC=C(Cn1nc(-c2c(Cl)cccc2Cl)c(Cl)c1C)C(=O)OC [Compound 23]	3 (herbicidal effect of not less than 50% by weight and less than 70% by weight)	5 (herbicidal effect of not less than 90% by weight)	4 (herbicidal effect of not less than 70% by weight and less than 90% by weight)	4 (herbicidal effect of not less than 70% by weight and less than 90% by weight)	4 (herbicidal effect of not less than 70% by weight and less than 90% by weight)	0 (herbicidal effect of not less than 0% by weight and less than 10% by weight)	0 (herbicidal effect of not less than 0% by weight and less than 10% by weight)	4 (herbicidal effect of not less than 70% by weight and less than 90% by weight)	4 (herbicidal effect of not less than 70% by weight and less than 90% by weight)	4 (herbicidal effect of not less than 70% by weight and less than 90% by weight)	4 (herbicidal effect of not less than 70% by weight and less than 90% by weight)	3 (herbicidal effect of not less than 50% by weight and less than 70% by weight)	4 (herbicidal effect of not less than 70% by weight and less than 90% by weight)	5 (herbicidal effect of not less than 90% by weight)	0 (herbicidal effect of not less than 0% by weight and less than 10% by weight)	0 (herbicidal effect of not less than 0% by weight and less than 10% by weight)	0 (herbicidal effect of not less than 0% by weight and less than 10% by weight)
COC=C(Cn1nc(-c2cc(Cl)cc(Cl)c2)c(Cl)c1C)C(=O)OC [Compound 25]	3 (herbicidal effect of not less than 50% by weight and less than 70% by weight)	4 (herbicidal effect of not less than 70% by weight and less than 90% by weight)	4 (herbicidal effect of not less than 70% by weight and less than 90% by weight)	4 (herbicidal effect of not less than 70% by weight and less than 90% by weight)	4 (herbicidal effect of not less than 70% by weight and less than 90% by weight)	0 (herbicidal effect of not less than 0% by weight and less than 10% by weight)	0 (herbicidal effect of not less than 0% by weight and less than 10% by weight)	4 (herbicidal effect of not less than 70% by weight and less than 90% by weight)	4 (herbicidal effect of not less than 70% by weight and less than 90% by weight)	4 (herbicidal effect of not less than 70% by weight and less than 90% by weight)	4 (herbicidal effect of not less than 70% by weight and less than 90% by weight)	3 (herbicidal effect of not less than 50% by weight and less than 70% by weight)	3 (herbicidal effect of not less than 50% by weight and less than 70% by weight)	3 (herbicidal effect of not less than 50% by weight and less than 70% by weight)	0 (herbicidal effect of not less than 0% by weight and less than 10% by weight)	0 (herbicidal effect of not less than 0% by weight and less than 10% by weight)	0 (herbicidal effect of not less than 0% by weight and less than 10% by weight)

Reference: patent US6809065B2, “Herbicide containing substituted pyrazole derivative as active ingredient” (SDS Biotech K.K., priority 2001, dated 2004)
